Results on four compounds are retold here after US4906622A, “Optically active 2-chloro-12-(3-dimethylamino-2-methyl-propyl)-12H-dibenzo[d.g] [1,3,6] dioxazocines and a process for the preparation thereof” (Egis Gyogyszergyar, priority 1985, dated 1990).

The structures appear in SMILES notation. Counter-ions that a name gives are not always drawn. Like-named read-outs stand apart in the source and are kept apart here.

The subject of data set [1] is tremor induced by tremorine. Briefly: animal or person. The format is in vivo, mice. As to conditions: for T.I. (therapeutic index) (Table 1) / T.I. (therapeutic index) (Table 2) / ED50: po; for ED50 p.o., inhibition of tremor induced by tremorine (Table 1) / ED50 p.o., inhibition of tremor induced by tremorine (Table 2): hydrochloride; for ED50: Mus musculus. How it is done:
(§1) The hydrochloride of the racemic compound, the hydrochloride of the (-)-isomer [compound of Example 6; the salt has (+) rotation] and the hydrochloride of the (+)-isomer [compound of Example 7; the salt has (-) rotation] were tested for acute toxicity on mice with peroral treatment and for the inhibition of tremor induced by tremorine (the latter test characterizes the action against Parkinson's disease). In the latter case, the inhibition of tremor induced by tremorine [1,1'-(2-butynylene)-dipyrrolidine] administered intraperitoneally at a dosage of 20 mg/kg was tested on mice as described in Science, 124, 79 (1956). The compound to be examined was given perorally to a population of 50 mice one hour prior to the administration of tremorine, and the tremor developed was evaluated 45 minutes after the administration of tremorine.
Since a lower population of mice was used, less exact values of ED50 were obtained for the compounds tested. Thus, the therapeutic index calculated for the racemic compound is lower by a factor of about 2.4 than the value given in U.S. Pat. No. 4 4,208,410. However, the data obtained under identical test circumstances on a relatively low number of test animals can be compared with each other.
(§2) To make sure that no contradiction exists between the data of Table I on the one hand, and the data of U.S. Pat. No. 4,208,410 on the other hand, the above tests was repeated using a population of 500 mice for each compound tested.

Data set [2] relates to mice. Nature of the data set: Acute toxicity on mice with peroral treatment. The format is in vivo. As to conditions: for LD50 p.o. (Table 1): Table 1, hydrochloride; for LD50 p.o. (Table 2): repeated test, population of 500 mice for each compound, hydrochloride. On the procedure: as §1, §2
The conditions of data set [3]: cited from earlier work.
Data set [4] is described as follows: Local anaesthetic activity. The format is in vivo. As to conditions: primary tests / detailed tests.
Data set [5] in a line: Acute toxicity on mice with peroral treatment. The format is in vivo. The note with it: mouse, in vivo, po. On the procedure: as §1, §2
Where [6] appears, read: p.o. one hour before tremorine 20 mg/kg i.p., evaluated 45 minutes after tremorine, population of 50 mice.
The mark [7] stands for this setting: repeated test, population of 500 mice for each compound.
Where [8] appears, read: population of 500 mice, U.S. Pat. No. 4,208,410.

As usually defined, the ED50 is the dose at which the effect has come halfway, by size or by number of responders. The LD50 is the dose expected to kill half of the subjects tested.

For the compound `CC(CN(C)C)CN1c2ccccc2OCOc2ccc(Cl)cc21` (single isomer, unassigned; (-)) [Example 7, (-)-2-Chloro-12-(3-dimethylamino-2-methylpropyl)-12H-dibenzo[d,g][1,3,6]dioxazocine hydrochloride], in data set [1] (mouse, in vivo), the “T.I. (therapeutic index) (Table 1)” value stood at 65.7 and the “T.I. (therapeutic index) (Table 2)” value is listed as 160.8. The “ED50 p.o., inhibition of tremor induced by tremorine (Table 1)” value in data set [1] (setting [6]) was 7 mg/kg. In data set [1] (setting [7]), the “ED50 p.o., inhibition of tremor induced by tremorine (Table 2)” value is 2.86 mg/kg. For the same compound, in data set [2], the “LD50 p.o. (Table 1)” value stood at 460 mg/kg and the “LD50 p.o. (Table 2)” value is recorded as 460 mg/kg.
For `CC(CN(C)C)CN1c2ccccc2OCOc2ccc(Cl)cc21` (racemic) [2-chloro-12-(3-dimethylamino-2-methylpropyl)-12H-dibenzo[d,g][1,3,6]-dioxazocine], the “local anaesthetic and antiparkinsonic activity” value in data set [3] (known from U.S. Pat. No. 4,208,410) is “has local anaesthetic and antiparkinsonic activity”. Also, in data set [3] (setting [8]), the “ED50, antiparkinsonic activity” value is 11 mg/kg and the therapeutic index is reported as 25.
As for `CC(CN(C)C)CN1c2ccccc2OCOc2ccc(Cl)cc21` (racemic) [racemic, reference compound], the local anaesthetic activity result in data set [4] was “has local anaesthetic activity, detailed tests have not shown any therapeutically valuable effect”. The ED50 in data set [1] (p.o. one hour before tremorine 20 mg/kg i.p., evaluated 45 minutes after tremorine, population of 50 mice, read-out: ED50 p.o., inhibition of tremor induced by tremorine (Table 1)) turned out to be 25 mg/kg. In addition, in data set [1] (repeated test, population of 500 mice for each compound, read-out: ED50 p.o., inhibition of tremor induced by tremorine (Table 2)), the ED50 was found to be 10.5 mg/kg. Also, in data set [1] (mouse, in vivo), the “factor by which the therapeutic index is lower than the value given in U.S. Pat. No. 4,208,410” value is reported as “about 2.4”, the “T.I. (therapeutic index) (Table 1)” value came to 10.8 and the “T.I. (therapeutic index) (Table 2)” value is 25.7. Besides, the LD50 in data set [5] (Table 1, read-out: LD50 p.o. (Table 1)) stood at 270 mg/kg. In data set [5] (repeated test, population of 500 mice for each compound, read-out: LD50 p.o. (Table 2)), the LD50 amounted to 270 mg/kg.
On to `CC(CN(C)C)CN1c2ccccc2OCOc2ccc(Cl)cc21` (single isomer, unassigned; (+)) [Example 6, (+)-2-chloro-12-(3-dimethylamino-2-methylpropyl)-12H-dibenzo[d,g][1,3,6]dioxazocine hydrochloride], for which, in data set [1] (mouse, in vivo), the “T.I. (therapeutic index) (Table 1)” value was 72.7 and the “T.I. (therapeutic index) (Table 2)” value turned out to be 168.4. In addition, in data set [1] (setting [6]), the “ED50 p.o., inhibition of tremor induced by tremorine (Table 1)” value stood at 2.2 mg/kg. The “ED50 p.o., inhibition of tremor induced by tremorine (Table 2)” value in data set [1] (setting [7]) was 0.95 mg/kg. Besides, in data set [2], the “LD50 p.o. (Table 1)” value is given as 160 mg/kg and the “LD50 p.o. (Table 2)” value is 160 mg/kg.
